A short description of assay [1]: oxygen radical absorbance capacity (ORAC) assay. The format is biochemical. Conditions: isolated and reference compounds. As to the method:
ORAC assay was carried out according to the method of Ou, G. and colleagues (1993) with some modifications. Trolox and FL were used as a standard and a fluorescent probe respectively. Free radicals were produced by AAPH to oxidize FL. Different dilutions of Trolox ([…]) and appropriate dilutions of tested sample were prepared with phosphate buffer (10 mM, pH 7.4). Trolox dilution ([…]) or sample solution were pipetted into a well of 96-well black microplate (VWR) and then FL (150 mL, 10 nM) was added. The reaction mixture was incubated at 37° C. for 30 min Afterward s, fluorescence was measured every 90 sec at the excitation of 485 nm and the emission of 520 nm using FLUOstar OPTIMA. After 3 cycles, AAPH ([…], 240 mM) was added quickly, and then the measurement was resumed and continued up to 90 min (60 cycles in total). The background signal was determined using the first 3 cycles. The ORAC values were calculated according to the method of Ou, G. and colleagues (1993) and expressed as Trolox equivalent (mmol TE/mmol). After freeze-drying in triplicate, MPLC fractions M1-M8 were analyzed in natural concentrations.

A short description of assay [2]: hydrogen peroxide scavenging assay. The format is biochemical. Conditions: isolated and reference compounds; read-out: H2O2 assay EC50. As to the method: Hydrogen peroxide scavenging assay was performed in accordance with the method of Ichikawa, M. and colleagues (2002). Sample solutions at appropriate concentration were prepared using phosphate buffer (100 mM, pH 6.0). Sample solution ([…]), phosphate buffer (30 mL, 100 mM, pH 6.0), and hydrogen peroxide solution (10 mL, 500 mM) were mixed in 96-well clear microplate (VWR, Ismaning, Germany). Then peroxidase (40 mL, 150 U/mL) and ABTS (40 mL, 0.1%) were added. The microplate was incubated at 37° C. for 15 min. The absorbance (A) of each well was measured at 414 nm with FLUOstar OPTIMA (BMG LABTECH, Offenburg, Germany). […] After freeze-drying three times 1 MPLC fractions M1-M8 were analyzed in natural concentrations.
E=[(A−Ablank)control−(A−Ablank)test]/(A−Ablank)control·100

The test system of another assay is guinea pig distal colon. Nature of the assay: fecal pellet propulsion motility assay in isolated distal colon (GIMM). Conditions: MPLC fractions and their main compounds, serosal application in Krebs. As to the method:
Gastrointestinal Motility Assays: Segments (˜10 cm long) of distal colon were pinned on either end in a Sylgard-lined 50 mL organ bath, continuously perfused with oxygenated Krebs solution (rate: 10 mL min^−1) and maintained at temperatures between 36 and 37° C. Tissues were initially allowed to equilibrate for 30 mins in re-circulating Krebs solution. Colonic motility was studied using the Gastronintestinal Motility Monitoring system (GIMM; Med-Associates Inc., Saint Albans, Vt., USA), which included a digital video camera (Catamount Research and Development Inc, St Albans, Vt., USA) to film fecal pellet propulsion. Trials were separated by 5-min recovery periods between successive pellet runs. The GIMM system software calculated velocities by tracking pellets as they traversed colon segments. After initial equilibration, five pellet propulsion trials in vehicle solution were obtained to determine the basal velocity for each tissue preparation. To reduce variations between runs and experiments, the values obtained were used to generate a normalized basal velocity by dividing the values of the 4th-5th runs by the value of the 1st-2nd runs. Garcinia buchananii stem bark extract and test compounds dissolved in 100 mL of Krebs solution were superfused either into the organ bath or into the lumen of the colon using polyethylene tubing [PE 205; outside diameter 9.5 mm (BD-Worldwide, Sparks, Md., USA)]. The effects of extract and test compounds were evaluated by obtaining velocities of four trials taken at 5-min intervals (5-20 min) Normalized velocity data for these treatments were obtained by dividing the test velocities acquired by the average velocity of the five pellet propulsion runs performed in vehicle solution (runs 1-5, above). Normalized data became ratios without units, and were presented as a percent velocity of basal activity for each tissue. Velocities of pellet propulsion were also studied during washout of tissue with Krebs solution (after extract or test compound application) for 20 min
A segment (˜10-12 cm long) of distal colon was pinned on either end in a Sylgard-lined 50 mL organ bath being continuously perfused with oxygenated Krebs solution (rate: 10 mL min^−1) and maintained at temperatures between 36-37° C. Nail-polish-coated guinea-pig pellets similar in shape and size to the “native” colonic fecal pellets were used to determine propulsive velocities using the Gastrointestinal Motility Monitoring system (Med-Associates Inc., Saint Albans, Vt., USA) for filming pellet propulsion as described by Hoffman and others (2010). Velocity was calculated based on the time required for pellets to traverse 5-6 cm of the central colon segment ending 1 cm from the aboral end. Data collection started after 30 minutes of equilibration. A five-minute interval was used to allow equilibration of motor activity between successive pellet runs. Baseline velocities were measured for 20 minutes.
In intraluminal studies, the aqueous extract was prepared by suspending 2 g of G. buchananii bark powder in 100 mL Krebs, whereas 1 g G. buchananii bark powder prepared in the same manner was used for bath (serosal) applications. The extract-Krebs mixture was continuously stirred for 30 minutes and filtered using analytical filter paper (Schleicher and Schuell Blue Ribbon filter paper 589/3; 0.2 μm retention). Garcinia buchananii extract and test compounds were delivered to isolated colons in Krebs solution, and evaluated for effects on pellet propulsion during 20-25 minute time intervals. Intraluminal drug deliveries (350 μL min^−1 Krebs solution) were performed using polyethylene tubing (PE 205; outside diameter 9.5 mm) inserted ˜1.5 cm into the oral end of the segments. In bath deliveries, G. buchananii extract and test compounds were superfused directly into the organ bath. Studies involving PTLC fractions were performed using the organ bath delivery method only.

The conditions of assay [3]: cited from earlier work.
Assay [4] concerns guinea pig colon circular smooth muscle cells (CSMC). The assay is described as follows: intracellular recording of slow wave action potentials, colon circular smooth muscle. The settings on record: extract 0.5 g stem bark powder/100 ml Krebs; manniflavanone 41.0 mg/100 mL Krebs. On the procedure:
(§1) Calcium imaging and standard intracellular microelectrode recording were used to determine the effect of G. buchananii extract on the discharge and frequency of Ca^2+ transients, Ca^2+ flashes and Ca^2+ waves. Six fractions (M1-M5 and M7) collected using medium pressure liquid chromatography and manniflavanone, a pure compound from M3 were analyzed for the effect on the resting membrane potential and action potentials in intact GBSM preparations, and slow wave action potentials in CSMC in guinea pig and porcine colon.

Assay [5] relates to guinea pig gallbladder smooth muscle cells (GBSM). Nature of the assay: intracellular microelectrode recording of action potentials, gallbladder smooth muscle. The settings on record: extract 0.5 g stem bark powder/100 ml; manniflavanone 41.0 mg/100 mL Krebs. On the procedure:
as §1

Assay [6] deals with S-neurons in the myenteric ganglia of guinea pig distal colon. Nature of the assay: intracellular recording of evoked fast excitatory postsynaptic potentials (fEPSPs). Conditions: naloxone 10 μmol/L; yohimbine 1 μmol/L. On the procedure: Intracellular Recording: To study fast excitatory postsynaptic potentials, longitudinal muscle-myenteric plexus preparations of guinea pig colon were pinned and stretched in a 2.5 mL Sylgard-lined recording chamber. […] Myenteric ganglia were visualized at ×200 using Hoffman modulation contrast optics on an inverted microscope (Nikon Diaphot, […]., USA). Individual neurons were randomly impaled using glass microelectrodes, which were filled to the shoulder with 1.0 mol L^-1 KCl and topped off with 2.0 mol L^-1 KCl, generating a range of 50-150 MΩ input resistance. Membrane potential was measured with an Axoclamp-2A amplifier (Axon Instruments, Union City, Calif., USA) and the electrical signals were acquired and analyzed using PowerLab Chart version 5.01 (ADlnstruments, Castle Hills, Australia). Input resistance and resting membrane potential were determined for neurons before and after exposure to G. buchananii extract. Using monopolar extracellular electrodes made from Teflon®-insulated platinum wire, synaptic input to myenteric neurons was elicited by direct single pulse stimuli (0.5 ms duration) applied to interganglionic fiber tracts. […] The amplitude was measured by taking the difference in voltage between the peak of each fEPSP and the membrane holding potential. […]

Setting [7] is: Values from Wolfe and Liu (stereochemistry of naringenin and taxifolin not stated).

Each structure is given as a SMILES string. Where a name gives a salt, the structure may show the parent alone. Read-outs that look alike come from different tables or passages of the source.

By EC50 is commonly meant the midpoint of the concentration-response curve. `O=C1c2c(cc(O)c([C@@H]3O[C@H](CO)[C@@H](O)[C@H](O)[C@H]3O)c2O)O[C@H](c2ccc(O)c(O)c2)[C@H]1O` [Compound 1, (2R,3R)-Taxifolin-6-C-β-D-glucopyranoside]: the ORAC assay in assay [1] is 9.57 μmol TE/μmol. Also, the EC50 in assay [2] came to 11 µM.
As for `O=C1c2c(O)cc(O)c([C@@H]3C(=O)c4c(O)cc(O)cc4O[C@H]3c3ccc(O)cc3)c2O[C@H](c2ccc(O)c(O)c2)[C@H]1O` [Compound 4, (2R,3S,2″R,3″R)-GB-2], in assay [1], the ORAC assay is recorded as 12.10 μmol TE/μmol. In the assay with guinea pig distal colon, the “effect on pellet propulsion velocity” value is recorded as “inhibits guinea pig colon propulsive motility”. For the same molecule, the concentration for a half-maximal effect (EC50) in assay [2] amounted to 2.2 µM.
Consider `O=C1c2c(O)cc(O)cc2O[C@H](c2ccc(O)c(O)c2)[C@H]1O` [Compound 6, (+)-(2R,3R)-Taxifolin], for which the ORAC assay in assay [1] was 7.63 μmol TE/μmol. Further, in assay [2], the half-maximal effective concentration (EC50) amounted to 11.3 µM.
As to `Oc1cc(O)c2c(c1)O[C@H](c1ccc(O)c(O)c1)[C@H](O)C2` [(−)-epicatechin], in assay [3] (setting [7]), the “ORAC, Literature” value is given as 9.14^6 μmol TE/μmol. In assay [1], this molecule displayed an ORAC assay of 9.65 μmol TE/μmol. The EC50 in assay [2] was found to be 4.1 µM.
For `O=C1c2c(cc(O)c([C@@H]3OC(CO)[C@@H](O)[C@H](O)C3O)c2O)O[C@H](c2ccc(O)cc2)[C@H]1O` (stereo partly drawn) [Compound 2, (2R,3R)-Aromadendrin-6-C-β-D-glucopyranoside], in assay [1], the ORAC assay worked out at 4.23 μmol TE/μmol. Besides, in assay [2], the EC50 stood at 10.9 µM.
The matching figures for `O=C1O[C@H]([C@@H](O)CO)C(O)=C1O` [ascorbic acid]: 0.34 μmol TE/μmol and 18.5 µM.
`O=C1CC(c2ccc(O)cc2)Oc2cc(O)cc(O)c21` (racemic) [(±)-naringenin]: in assay [1], the ORAC assay is recorded as 3.96 μmol TE/μmol. Also, the EC50 in assay [2] turned out to be 8.6 µM.
The molecule `O=C1c2c(O)cc(O)c([C@@H]3C(=O)c4c(O)cc(O)cc4O[C@H]3c3ccc(O)c(O)c3)c2O[C@H](c2ccc(O)c(O)c2)[C@H]1O` [Compound 3, (2R,3S,2″R,3″R)-manniflavanone] registered an ORAC assay in assay [1] of 13.73 μmol TE/μmol. Besides, the “slow wave action potentials (SW) in CSMC” value in assay [4] is “inhibits spikes of SW”. Also, in assay [5], the “action potentials in GBSM” value is on record as “inhibits action potentials”. Moreover, in assay [2], the EC50 came out at 2.8 µM.
In turn, `O=C1C[C@@H](c2ccc(O)c(O)c2)Oc2c1c(O)cc(O)c2[C@@H]1C(=O)c2c(O)cc(O)cc2O[C@H]1c1ccc(O)c(O)c1` [Compound 5, (2R,3S,2″S)-2-(3,4-dihydroxyphenyl)-2,2′,3,3′-tetrahydro-5,5,7,7-tetrahydroxy-2′-(3,4-dihydroxyphenyl)-[3,8′-Bi-4H-1-benzopyran]-4,4′-dione] displayed an ORAC assay in assay [1] of 10.50 μmol TE/μmol. Besides, in the assay with guinea pig distal colon, the “effect on pellet propulsion velocity” value was “inhibits guinea pig colon propulsive motility”. For the same molecule, the EC50 in assay [2] turned out to be 14.4 µM.
Take `C=CCN1CC[C@]23c4c5ccc(O)c4O[C@H]2C(=O)CC[C@@]3(O)[C@H]1C5` [naloxone, naloxone hydrochloride]: in assay [6], the “effect of antagonist alone on fEPSPs” value is reported as “had no effect on fEPSPs”.
Same read-out and setting: for `COC(=O)[C@@H]1[C@H]2C[C@H]3c4[nH]c5ccccc5c4CCN3C[C@@H]2CC[C@@H]1O` [yohimbine, yohimbine hydrochloride] the value was “had no effect on fEPSPs”.
Regarding `O=c1c(O)c(-c2ccc(O)c(O)c2)oc2cc(O)cc(O)c12` [quercetin], the “ORAC, Literature” value in assay [3] (Values from Ou et al.) is listed as 7.28 μmol TE/μmol; in assay [3] (setting [7]) it was 8.04 μmol TE/μmol. Besides, the ORAC assay in assay [1] stood at 5.61 μmol TE/μmol. The EC50 in assay [2] was found to be 6.1 µM.

The values are drawn from patent publication US20140348966A1, “GARCINIA BUCHANANII BAKER COMPOUNDS, COMPOSITIONS AND RELATED METHODS” (priority 2011, published 2014).
